According to PubChem BioAssay (NCI):
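1) Cells in 96-well plates. 2) Compound, 48 h, 5 concentrations. 3) Linear interpolation between surrounding doses. 4) Unreached endpoint = highest concentration. GI50 marks 50% less growth. TGI: total growth inhibition.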

Assays:
Assay in all cases: growth of human tumour cells (NCI), 48 h
A549 NSCLC = test system: A549 NSCLC
DMS 273 small cell lung = test system: DMS 273 small cell lung
KM20L2 colon = test system: KM20L2 colon
MOLT-4 leukemia = test system: MOLT-4 leukemia
OVCAR-8 ovarian = test system: OVCAR-8 ovarian
SNB-78 CNS = test system: SNB-78 CNS
U251 CNS = test system: U251 CNS
UO-31 renal = test system: UO-31 renal
DLD-1 colon = test system: DLD-1 colon
A498 renal = test system: A498 renal
MDA-MB-231 breast = test system: MDA-MB-231 breast
PC-3 prostate = test system: PC-3 prostate

| SMILES | TGI (A549 NSCLC) [µM] | TGI (DMS 273 small cell lung) [µM] | TGI (KM20L2 colon) [µM] | TGI (MOLT-4 leukemia) [µM] | TGI (OVCAR-8 ovarian) [µM] | TGI (SNB-78 CNS) [µM] | TGI (U251 CNS) [µM] | TGI (UO-31 renal) [µM] | TGI (DLD-1 colon) [µM] | TGI (A498 renal) [µM] | TGI (MDA-MB-231 breast) [µM] | TGI (PC-3 prostate) [µM] | GI50 (A498 renal) [µM] | GI50 (A549 NSCLC) [µM] | GI50 (MDA-MB-231 breast) [µM] | GI50 (MOLT-4 leukemia) [µM] | GI50 (OVCAR-8 ovarian) [µM] | GI50 (PC-3 prostate) [µM] | GI50 (U251 CNS) [µM] | GI50 (UO-31 renal) [µM] |
| --- | --- | --- | --- | --- | --- | --- | --- | --- | --- | --- | --- | --- | --- | --- | --- | --- | --- | --- | --- | --- |
| CC1(C)C(=O)C(C)(C)C1=NNC(N)=S | > 100 | > 100 | > 100 | > 100 | > 100 | > 100 | > 100 | > 100 | – | – | – | – | – | – | – | – | – | – | – | – |
| c1ccc2c(c1)Cc1c(Cc3csc4ccccc34)ccc3cccc-2c13 | > 100 | > 100 | > 100 | > 100 | > 100 | > 100 | > 100 | > 100 | > 100 | – | – | – | – | – | – | – | – | – | – | – |
| O=C(CCC(=O)Nc1cccc(C(F)(F)F)c1)CC(=O)c1ccc2ccccc2c1 | > 100 | > 100 | > 100 | > 100 | > 100 | > 100 | > 100 | > 100 | > 100 | > 100 | – | – | – | – | – | – | – | – | – | – |
| CC1=CP(=O)(c2ccccc2)C=C(C)C1=C(Cl)Cl (stereo not given) | > 100 | 9.22 | 4.61 | 21.6 | > 100 | 9.03 | 19.8 | – | 27.1 | – | – | – | – | – | – | – | – | – | – | – |
| CC(C)COC1Sc2ccccc2S1 | 46.6 | 43.1 | 36.2 | > 100 | > 100 | 65.1 | 35.9 | 29.4 | 35.1 | – | – | – | – | – | – | – | – | – | – | – |
| C(=C\C(Sc1ccccc1)c1ccccc1)/NNC1=NC(c2ccccc2)C(c2ccccc2)=NN1 (stereo not given) | > 100 | > 100 | > 100 | 77.9 | > 100 | > 100 | > 100 | > 100 | 56 | – | – | – | – | – | – | – | – | – | – | – |
| N#CC1(C#N)C=CC(=C2OCC3CCCN23)C=C1 (stereo not given) | > 100 | > 100 | > 100 | > 100 | > 100 | > 100 | > 100 | > 100 | > 100 | > 100 | – | – | – | – | – | – | – | – | – | – |
| O=C(Nc1ccc(Cl)cc1C(=O)O)c1ccc([N+](=O)[O-])cc1 | > 100 | 67.1 | 48.3 | 61.7 | > 100 | 67.2 | 51.1 | 44.1 | 30.9 | 27.2 | – | – | – | – | – | – | – | – | – | – |
| CCOC(=N)CC(=O)Nc1ccccc1 | > 46.4 | > 46.4 | > 100 | > 31.6 | > 21.5 | > 46.4 | > 100 | > 46.4 | > 46.4 | > 46.4 | – | – | – | – | – | – | – | – | – | – |
| COc1cc2c(c(OC)c1OC)-c1ccc(SC)c(=O)cc1[C@@H](NC(=O)C(F)(F)F)CC2 | > 100 | > 100 | < 0.0115 | > 27.2 | > 72.6 | – | 56.3 | > 95.7 | > 100 | 1.86 | > 100 | > 100 | – | – | – | – | – | – | – | – |
| Clc1cccc(CNc2c3ccccc3nc3ccccc23)c1 | 6.01 | – | – | 10.7 | 8.93 | – | 4.56 | 3.13 | – | 2.67 | 4.75 | 4.65 | 1.3 | 2.07 | 1.91 | 2.51 | 2.41 | 1.64 | 2 | 1.14 |
